Source: patent US7576059B2, “Peptide derivatives” (Novo Nordisk A/S, priority 1995, dated 2009)
Residues, ends and D or L forms follow the SMILES beside them.

Assay: Determination of lipophilicity relative to human insulin (k′rel) by RP-HPLC
Type: physicochemical
Conditions: pH 7.3
Protocol: The lipophilicity of peptides and peptide derivatives relative to human insulin, k′rel, was measured on a LiChrosorb RP18 (5 μm, 4×250 mm) HPLC column by isocratic elution at 40° C. using mixtures of A) 0.1 M sodium phosphate buffer, pH 7.3, containing 10% acetonitrile, and B) 50% acetonitrile in water as eluents. The elution was monitored by following the UV absorption of the eluate at 214 nm. Void time, t0, was found by injecting 0.1 mM sodium nitrate. Retention time for human insulin, tinsulin, was adjusted to at least 2t0 by varying the ratio between the A and B solutions. k′rel=(tderivative−t0)/(tinsulin−t0).

Row | lipophilicity relative to human insulin, k′rel | SMILES | lipophilicity relative to human insulin, k′rel (LiChrosorb RP18 HPLC, isocratic, 40° C., k′rel=(tderivative−t0)/(tinsulin−t0))
1 |  | CC(C)C[C@H](NC(=O)[C@H](Cc1ccccc1)NC(=O)CNC(=O)[C@@H](C)NC(=O)[C@@H](N)Cc1ccc(O)cc1)C(=O)N[C@@H](CCCCN)C(=O)O [H-Tyr-D-Ala-Gly-Phe-Leu-Lys-OH] (HELM PEPTIDE1{Y.[dA].G.F.L.K}$$$$V2.0) | 3.0×10^−3
2 | 2.3 | CCCC[C@H](NC=O)C(=O)N[C@@H](CC(C)C)C(=O)N[C@@H](Cc1ccccc1)C(=O)N[C@@H](CCCC)C(=O)N[C@@H](Cc1ccc(O)cc1)C(=O)N[C@@H](CCCCN)C(=O)O [For-Nle-Leu-Phe-Nle-Tyr-Lys-OH] (HELM PEPTIDE1{[O=C[*:2]].[Nle].L.F.[Nle].Y.K}$$$$V2.0) | 
